Experimental data reported in patent publication US20070191324A1, “Methods for treatment or prophylaxis of aldosterone-mediated pathogenic effects in a subject using an epoxy-steroidal aldosterone antagonist” (priority 1999, published 2007).

What was measured:
[1] = Pharmacokinetics in moderate hepatic impairment vs matched normal subjects (Example A-13); settings: for AUC / Cmax / AUC(0-inf) / half-life / Tmax: human, plasma, 400 mg; for AUC(0-inf): Single Dose AUC(0-∞), linear kinetics assessment; for half-life: T1/2, Mean;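 on all read-outs here: impaired subjects were Child-Pugh Class B with ascites, compared against healthy volunteers matched for sex, age, weight and smoking, blood sampled before and after dosing on Days 1 and 7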
[2] = system: patients with hypertension; test: Dose-ranging study of eplerenone vs placebo and spironolactone in hypertension (Examples A-14, D-1); type: in vivo, human
Description: A multicenter, randomized, double-blind, parallel group study was conducted in patients with hypertension. […] The study consisted of a two-week pretreatment period for completion of screening procedures and discontinuation of any current antihypertensive medication(s). The screening period was followed by a four-week single-blind placebo lead-in treatment period. Randomization was followed by an eight-week double-blind active or placebo treatment period. The primary efficacy measure was the change from baseline in cuff diastolic blood pressure measured at trough as compared to placebo. Secondary efficacy measures included changes in cuff assessed trough systolic blood pressure and changes in average 24-hour diastolic and systolic blood pressure assessed by ambulatory blood pressure monitoring. Safety was assessed by conducting routine clinical lab tests, physical exams, ECGs, and monitoring for adverse events. […] The adjusted mean change in blood pressure (mm Hg) from baseline to final visit is described in Table […].

[3] = system: saline-drinking SHRSP; test: Renal pathologic changes in saline-drinking SHRSP, Protocol 1 (Example A-8); type: in vivo, rat (SHRSP/A3N)
Description: Animals. Studies were conducted in accordance with institutional guidelines using male […] (generations […]-78), n=37, from our local colony. These animals were bred from NIH stock, derived from the […] substrain described originally by Okamoto and coworkers (Okamoto K et al. Circ. […] All animals were housed in a room maintained on a 12:12-h light:dark-cycle and an ambient temperature of 22±1° C. in the Animal Care Facility at New York Medical College. Rats were weaned at 4 weeks of age and allowed free access to Purina Lab Chow 5001 (Ralston Purina, St. Louis, Mo.) and tap water until the initiation of experimental protocols. […] Animals were examined each day for neurologic signs of stroke. Systolic arterial pressure and heart rate were measured each week in awake rats. […] Trunk blood was collected into chilled EDTA tubes following rapid decapitation of the animals between 10:00 am and 12:00 pm. Blood was stored at -20° C. for later measurement of plasma aldosterone levels. The kidneys were rapidly removed, weighed, and then preserved in fixative for later histologic examination. Assays and Analyses. Systolic blood pressure and heart rate of awake animals were measured by tail-cuff plethysmography using a Natsume KN-210 manometer and tachometer (Peninsula Laboratories Inc., Belmont, Calif.). Rats were warmed at 37° C. for 10 min and allowed to rest quietly in a Lucite chamber before measurement of blood pressure. Measurements of urine volume were made gravimetrically. Urinary protein concentration was determined by the sulfosalicylic acid turbidity method. Plasma aldosterone was measured by radioimmunoassay using ^125I-aldosterone as a tracer (Coat-a Count Aldosterone, Diagnostic Products Co., Los Angeles, Calif.). Histology. […] Coronal sections (2-3 μm) were stained with hematoxylin and eosin and examined by light microscopy in a blinded fashion as previously described ([…] et al. […] Glomerular damage was categorized as ischemic or thrombotic. Ischemic lesions were defined as retraction of glomerular capillary tufts with or without appreciable mesangiolysis. […] The presence of casts and tubular (ischemic) retraction and simplification was assessed semiquantitatively. […] Significant effects with respect to treatment and time were determined by two-way analysis of variance. Data with only one grouping variable were analyzed statistically by Student's unpaired t tests. […] Data were analyzed using version 2.01 of the GraphPad Prism statistical software package (GraphPad Software Inc., San Diego, Calif.). […]

[4] = Food effect pharmacokinetic studies, Japan and Ex-Japan (Example A-11); type: in vivo, human; settings: single 100 mg; for AUC(0-inf) / Cmax / AUC: male, human, in vivo, oral, 100 mg; for AUC: read-out: AUC (0-lqc)
Description: The […] trials included (i) a single dose tolerability trial, and (ii) a multiple dose tolerability trial, and (iii) a food effect study.
Both single dose and multiple dose tolerability trials were conducted in Japan utilizing healthy male Japanese subjects. […] Six subjects who received the 100 mg dose also participated in the food effect treatment arm of the single dose tolerability trial.
Table A-11C contains the geometric least squares means for the fed and fasting regimens, the ratios of means and the corresponding 95% confidence intervals (CI) for the ratios of the means for the Japan and Ex-Japan food effect trials.
Each panel consisted of six subjects who were given eplerenone and two subjects who were given placebo.

[5] = system: diabetic type 2 patients with hypertension and microalbuminuria; test: Eplerenone, enalapril and combination in diabetic hypertensives with microalbuminuria, 24 weeks (Examples A-18, D-7); type: in vivo, human
[6] = Mean, Multiple Dose 400 mg QD, Normal
[7] = Mean, Single Dose 400 mg, Normal
[8] = Mean, Multiple Dose 400 mg QD, Moderate
[9] = Mean, Single Dose 400 mg, Moderate
[10] = least squares mean, Multiple Dose 400 mg QD, Moderate Impairment
[11] = least squares mean, Single Dose 400 mg, Moderate Impairment

## COC(=O)[C@@H]1CC2=CC(=O)CC[C@]2(C)[C@@]23O[C@@H]2C[C@@]2(C)[C@@H](CC[C@@]24CCC(=O)O4)[C@H]13 [Eplerenone, Pregn-4-ene-7,21-dicarboxylic acid, 9,11-epoxy-17-hydroxy-3-oxo-, γ-lactone, methyl ester, (7α, 11α, 17β)-]
[1]; 400 mg QD dosing, both subject groups
  time to steady-state concentrations: by the fourth day
[1]; following single dosing
  mean AUC higher in moderate impairment than matched normal subjects: 41-50%
[1]; Mean, Multiple Dose 400 mg QD, Moderate hepatic impairment
  AUC: 48.8 µg·h/mL
[1]; [6]
  AUC: 33.8 µg·h/mL
  Cmax: 3.88 µg/mL
[1]; Mean, Single Dose 400 mg, Moderate hepatic impairment
  AUC: 51.4 µg·h/mL
[1]; [7]
  AUC: 31 µg·h/mL
  Cmax: 3.84 µg/mL
  Tmax: 2.03 h
[1]; [8]
  Cmax: 4.17 µg/mL
  Tmax: 2.81 h
[1]; [9]
  Cmax: 3.79 µg/mL
  Tmax: 2.56 h
[1]; [10]
  Cmax: 3.81 µg/mL
  Tmax: 2.9 h
[1]; least squares mean, Multiple Dose 400 mg QD, Normal
  Cmax: 3.67 µg/mL
[1]; [11]
  Cmax: 3.41 µg/mL
  Tmax: 2.7 h
[1]; least squares mean, Single Dose 400 mg, Normal
  Cmax: 3.81 µg/mL
[1]; Moderate Hepatic Impairment
  AUC(0-inf): 49.8 µg·h/mL
[1]; Normal
  AUC(0-inf): 28.7 µg·h/mL
[1]; Multiple Dose 400 mg QD, Moderate
  half-life: 8.07 h
[1]; Multiple Dose 400 mg QD, Normal
  half-life: 7.61 h
[1]; Single Dose 400 mg, Moderate
  half-life: 6.78 h
[1]; Single Dose 400 mg, Normal
  half-life: 6.31 h
[2]; 50-400 mg daily, 8 weeks
  gynecomastia: no reports of gynecomastia
[2]; 50-400 mg daily, QD or divided doses
  safety and tolerability: safe and well tolerated
[2]; wide range of doses, regardless of assessment method (FIG. D-1, D-2)
  DBP and SBP vs. placebo: significant reductions
[3]; 100 mg/kg/d by gavage, 8.4 to 13.1 weeks of age
  Glomerular damage, Total: only rare instances of ischemic or thrombotic glomeruli
[3]; 100 mg/kg/d, 5 weeks
  plasma concentration of aldosterone: 315 ± 35 pg/mL
  signs of stroke: none of eplerenone-treated SHRSP showed evidence of stroke
  tubules with ischemic retraction and simplification: 0.5±0.2%
[4]; Ex-Japan
  AUC (0-inf) Mean Ratio fed/fasted: 1.079
[4]; Japan
  AUC (0-inf) Mean Ratio fed/fasted: 1.218
[4]; Ex-Japan, Fasted
  AUC(0-inf): 9.06 µg·h/mL
  Cmax: 1.62 µg/mL
  AUC: 8.94 µg·h/mL
[4]; Ex-Japan, Fed
  AUC(0-inf): 9.78 µg·h/mL
  AUC: 9.65 µg·h/mL
[4]; Ex-Japan, Fed (high fat meal)
  Cmax: 1.32 µg/mL
[4]; Japan, Fasted
  AUC(0-inf): 8.97 µg·h/mL
  Cmax: 1.31 µg/mL
[4]; Japan, Fed
  AUC(0-inf): 10.9 µg·h/mL
  Cmax: 1.52 µg/mL
[5]; 24 weeks
  patients withdrawn for hyperkalemia: 6 patients
  reduction in microalbuminuria (UACR): greater reduction in microalbuminuria than enalapril
  subjects with elevated K+ (≧6.0 mEq/L): 8 subjects
[5]; EPL 200 mg QD, ENAL 40 mg QD, EPL 200 mg/ENAL 10 mg, 24 weeks
  patients requiring addition of hydrochlorothiazide (HCTZ): 36/84
[5]; Week 8
  Adjusted mean change ΔDBP (Week 8-baseline): −10.2
  Adjusted mean change ΔSBP (Week 8-baseline): −13.5
[5]; Week 24
  Adjusted mean change ΔDBP (Week 24-baseline): −13.2
  Adjusted mean change ΔSBP (Week 24-baseline): −19.5
[5]; in vivo
  tolerability: well tolerated
